Assay results published in PMC2994877, “A Full Pharmacological Analysis of the Three Turkey β-Adrenoceptors and Comparison with the Human β-Adrenoceptors” (PLoS ONE, 2010).
Like-named read-outs stand apart in the source and are kept apart here.

How the values were obtained:
[1] = molecular target: T1, turkey β3C-adrenoceptor (tβ3C) (Meleagris gallopavo, UniProt A0A803YLI8); assay: 3H-CGP12177 whole cell binding, CHO tβ3C cells
[2] = molecular target: T2, turkey β4C-adrenoceptor (tβ4C) (Meleagris gallopavo, UniProt P43141); assay: cell-based; type: binding
T2 construct: expressed in transfected cells

Human β3-adrenoceptor = conditions: Human β3, given for comparison; ref 25 and 30; cited from earlier work
[3] = molecular target: T1, turkey β3C-adrenoceptor (tβ3C); assay: CRE-SPAP production, CHO tβ3C cells; type: cell-based; conditions: CHO tβ3C cells
Human β2-adrenoceptor = molecular target: Human β2-adrenoceptor; design: method as in PMID 15655528, PMID 20590599; conditions: Human β2, given for comparison; ref 25 and 30; cited from earlier work
[4] = competition with 3H-CGP12177, whole cells, CHO tβ3C, given as log KD, mean ± s.e.m., read-out: Log KD (converted)
[5] = competition with 3H-CGP12177, whole cells, CHO tβ4C, given as log KD, mean ± s.e.m., read-out: Log KD (converted)
[6] = competition with 3H-CGP12177, whole cells, CHO tβ3C, given as log KD, mean ± s.e.m.
[7] = competition with 3H-CGP12177, whole cells, CHO tβ4C, given as log KD, mean ± s.e.m.

T2 sequence (P43141 whole entry): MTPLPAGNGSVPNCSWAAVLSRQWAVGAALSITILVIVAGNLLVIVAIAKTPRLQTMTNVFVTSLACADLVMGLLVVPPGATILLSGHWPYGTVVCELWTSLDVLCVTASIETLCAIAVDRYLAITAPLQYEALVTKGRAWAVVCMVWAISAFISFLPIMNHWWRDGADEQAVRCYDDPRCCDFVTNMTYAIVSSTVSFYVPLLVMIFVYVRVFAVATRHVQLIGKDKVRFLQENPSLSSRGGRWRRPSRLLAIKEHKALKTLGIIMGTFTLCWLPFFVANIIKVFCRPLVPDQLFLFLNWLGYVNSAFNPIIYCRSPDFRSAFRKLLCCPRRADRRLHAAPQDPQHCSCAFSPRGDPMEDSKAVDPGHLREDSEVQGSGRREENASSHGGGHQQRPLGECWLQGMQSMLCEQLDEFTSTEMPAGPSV
T1 sequence (A0A803YLI8 entry or part of it): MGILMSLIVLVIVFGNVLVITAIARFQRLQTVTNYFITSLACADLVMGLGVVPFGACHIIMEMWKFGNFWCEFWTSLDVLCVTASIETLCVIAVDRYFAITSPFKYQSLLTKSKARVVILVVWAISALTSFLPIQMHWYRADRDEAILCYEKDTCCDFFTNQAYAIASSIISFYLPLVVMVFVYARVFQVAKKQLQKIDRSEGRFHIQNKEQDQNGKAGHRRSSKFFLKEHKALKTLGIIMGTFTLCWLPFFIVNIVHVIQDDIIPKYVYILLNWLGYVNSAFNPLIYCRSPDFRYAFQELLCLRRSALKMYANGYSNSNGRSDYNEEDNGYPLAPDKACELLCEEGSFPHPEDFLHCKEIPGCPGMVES

Row | Kd [1, 4] | SMILES | Kd [2, 5] | Log KD (Human β3-adrenoceptor) | Kd [1] | other results
1 |  | C=CCc1ccccc1OCC(O)CNC(C)C (stereo not drawn) [Alprenolol] | 14.1 nM | −6.93 | 3.63 nM | 
2 | 17800 nM | CC(C)NCC(O)COc1ccc(CC(N)=O)cc1 (stereo not drawn) [Atenolol] | 17400 nM |  |  | 
3 |  | CC(C)NCC(O)COc1ccc(CCOCC2CC2)cc1 (stereo not drawn) [Betaxalol] | 575 nM | −5.97 |  | 
4 | 2630 nM | CC(C)NCC(O)COc1ccc(COCCOC(C)C)cc1 (stereo not drawn) [Bisoprolol] | 550 nM |  |  | 
5 |  | Cn1cc(C(F)(F)F)nc1-c1ccc(OCC(O)CNCCOc2ccc(O)c(C(N)=O)c2)cc1 (stereo not drawn) [CGP20712A] |  |  | 3980 nM | Kd ([3]; Log KD CGP20712A, vs agonist BRL37344, CRE-SPAP): 3090 nM; Kd ([3]; Log KD CGP20712A, vs agonist CGP12177, CRE-SPAP): 2690 nM; Kd ([3]; Log KD CGP20712A, vs agonist adrenaline, CRE-SPAP): 4570 nM; Kd ([3]; Log KD CGP20712A, vs agonist cimaterol, CRE-SPAP): 3470 nM; Kd ([3]; Log KD CGP20712A, vs agonist clenbuterol, CRE-SPAP): 1780 nM; Kd ([3]; Log KD CGP20712A, vs agonist dobutamine, CRE-SPAP): 7410 nM; Kd ([3]; Log KD CGP20712A, vs agonist fenoterol, CRE-SPAP): 2450 nM; Kd ([3]; Log KD CGP20712A, vs agonist formoterol, CRE-SPAP): 3630 nM; Kd ([3]; Log KD CGP20712A, vs agonist isoprenaline, CRE-SPAP): 3720 nM; Kd ([3]; Log KD CGP20712A, vs agonist noradrenaline, CRE-SPAP): 5250 nM; Kd ([3]; Log KD CGP20712A, vs agonist salbutamol, CRE-SPAP): 3240 nM; Kd ([3]; Log KD CGP20712A, vs agonist salmeterol, CRE-SPAP): 6310 nM
6 | 0.012 nM | CC(C)NCC(O)COc1cccc2[nH]c3ccccc3c12 (stereo not drawn) [Carazolol] | 0.0537 nM | −8.35 |  | 
7 |  | COc1ccccc1OCCNCC(O)COc1cccc2[nH]c3ccccc3c12 (stereo not drawn) [Carvedilol] | 0.123 nM |  |  | 
8 |  | Cc1ccc(OCC(O)C(C)NC(C)C)c2c1CCC2 (stereo not drawn) [ICI118551] |  |  | 1.17 nM | Kd ([3]; Log KD ICI118551, vs agonist BRL37344, CRE-SPAP): 0.49 nM; Kd ([3]; Log KD ICI118551, vs agonist CGP12177, CRE-SPAP): 0.316 nM; Kd ([3]; Log KD ICI118551, vs agonist adrenaline, CRE-SPAP): 1.62 nM; Kd ([3]; Log KD ICI118551, vs agonist cimaterol, CRE-SPAP): 0.398 nM; Kd ([3]; Log KD ICI118551, vs agonist clenbuterol, CRE-SPAP): 0.339 nM; Kd ([3]; Log KD ICI118551, vs agonist dobutamine, CRE-SPAP): 1.15 nM; Kd ([3]; Log KD ICI118551, vs agonist fenoterol, CRE-SPAP): 0.457 nM; Kd ([3]; Log KD ICI118551, vs agonist formoterol, CRE-SPAP): 0.513 nM; Kd ([3]; Log KD ICI118551, vs agonist isoprenaline, CRE-SPAP): 2.51 nM; Kd ([3]; Log KD ICI118551, vs agonist noradrenaline, CRE-SPAP): 1.38 nM; Kd ([3]; Log KD ICI118551, vs agonist salbutamol, CRE-SPAP): 0.49 nM; Kd ([3]; Log KD ICI118551, vs agonist salmeterol, CRE-SPAP): 0.617 nM
9 |  | O=C(O)COc1ccc(OCCNC[C@H](O)COc2ccccc2)cc1 [ICI215001] |  | −6.63 |  | Log KD [1, 6]: −5.31±0.09; Log KD [2, 7]: −6.55±0.06
10 |  | CC(CCc1ccccc1)NCC(O)c1ccc(O)c(C(N)=O)c1 (stereo not drawn) [Labetolol] |  | −6.18 |  | Log KD [1, 6]: −7.42±0.04; Log KD [2, 7]: −7.70±0.04
11 |  | COCCc1ccc(OCC(O)CNC(C)C)cc1 (stereo not drawn) [Metoprolol] |  |  | 1100 nM | Kd [2]: 1660 nM
12 |  | CC(C)NCC(O)COc1cccc2[nH]ccc12 (stereo not drawn) [Pindolol] | 5.25 nM |  | 1.95 nM | 
13 |  | CC(C)OC(=O)c1cc2c(OCC(O)CNC(C)(C)C)cccc2[nH]1 (stereo not drawn) [SDZ21009] |  | −7.10 |  | Log KD [1, 6]: −10.17±0.08; Log KD [2, 7]: −9.06±0.07; Log KD (Human β2-adrenoceptor): −10.28
14 |  | CCc1ccccc1OC[C@@H](O)CN[C@H]1CCCc2ccccc21.O=C(O)C(=O)O [SR59230A, 3-(2-Ethylphenoxy)-1-[(1,S)-1,2,3,4-tetrahydronapth-1-ylamino]-2S-2-propanol oxalate] |  | −7.37 |  | Log KD [1, 6]: −7.96±0.08; Log KD [2, 7]: −7.65±0.06; Log KD (Human β2-adrenoceptor): −8.45
15 | 537 nM | CC(C)NCC(O)c1ccc(NS(C)(=O)=O)cc1 (stereo not drawn) [Sotalol] | 692 nM | −5.05 |  | 
16 |  | CC(C)(C)NCC(O)c1cc(O)cc(O)c1 (stereo not drawn) [Terbutaline] | 33900 nM |  | 2400 nM | 
17 |  | CC(C)(C)NC[C@H](O)COc1nsnc1N1CCOCC1 [Timolol] | 2 nM | −6.80 |  | 
18 |  | CC(C)(C)NCC(O)c1ccccc1Cl (stereo not drawn) [Tulobuterol] | 3470 nM | −4.72 | 229 nM | Log KD (Human β2-adrenoceptor): −6.83
19 |  | O=C(NCCNCC(O)COc1ccc(O)cc1)N1CCOCC1 (stereo not drawn) [Xamoterol] |  |  | 2290 nM | Kd [2]: 589 nM
20 |  | COCCNC(=O)COc1ccc(OCCNC[C@H](O)COc2ccccc2)cc1 [ZD7114] |  | −6.78 |  | Log KD [1, 6]: −6.59±0.10; Log KD [2, 7]: −7.59±0.04; Log KD (Human β2-adrenoceptor): −7.31

Row | SMILES | Kd [1, 4] | Kd [2, 5] | Log KD (Human β3-adrenoceptor) | Kd [1] | other results
21 | CCCC(=O)Nc1ccc(OCC(O)CNC(C)C)c(C(C)=O)c1 (stereo not drawn) [Acebutolol] | 4070 nM | 3890 nM |  |  | 
22 | COc1ccc(CCNC[C@H](O)c2ccc(O)cc2)cc1OC [Denopamine] | 2340 nM | 1120 nM | −5.30 |  | Log KD (Human β2-adrenoceptor): −5.83
23 | OC(CNCC(O)C1CCc2cc(F)ccc2O1)C1CCc2cc(F)ccc2O1 (stereo not drawn) [Nebivolol] | 16.6 nM | 1.48 nM | −7.04 |  | Log KD (Human β2-adrenoceptor): −7.92
